From ChEMBL document CHEMBL1201862, “PubChem BioAssay data set” (2004)
Each block holds one compound with its values, some of them ahead of it. Calls of active or inactive are those of the source.

Assays:
fMet-Leu-Phe receptor = biological target: T1, fMet-Leu-Phe receptor (Homo sapiens, UniProt P21462); assay: formyl peptide receptor binders – dose response (AID 519); format: functional
T1 sequence (P21462 whole entry): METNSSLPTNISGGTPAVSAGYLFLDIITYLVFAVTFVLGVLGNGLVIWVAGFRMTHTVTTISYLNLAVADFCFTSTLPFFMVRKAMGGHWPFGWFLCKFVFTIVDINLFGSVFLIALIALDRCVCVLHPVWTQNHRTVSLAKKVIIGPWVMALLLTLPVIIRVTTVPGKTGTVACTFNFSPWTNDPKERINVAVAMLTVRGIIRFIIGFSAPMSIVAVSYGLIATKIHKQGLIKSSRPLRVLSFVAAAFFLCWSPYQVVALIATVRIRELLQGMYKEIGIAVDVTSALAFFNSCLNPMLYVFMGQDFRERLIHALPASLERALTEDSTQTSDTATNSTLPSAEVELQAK

[1] = DRD fibroblast viability loss – cell-based, non-viral oncogenic, luminescence, dose response (AID 1934); format: functional; details: Homo sapiens
BJ [2] = assay: BJ-TERT-LT-ST fibroblast viability loss – cell-based, RAS-independent, luminescence, dose response (AID 1935); format: functional; details: Homo sapiens;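 further: BJ fibroblasts immortalized with TERT plus LT and ST oncogenes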
BJ [3] = assay: cells; format: functional, cell-based; details: Homo sapiens
BJ [4] = assay: growth inhibition of engineered Ras-driven BJ cells – cell-based, alamar blue fluorescence, cherrypicked samples, dose response (AID 2631); format: functional; details: Homo sapiens;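 further: confirmatory dose-response assay in RAS-dependent BJ fibroblasts engineered with TERT, LT and ST, with cytotoxicity read by fluorescence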
BJ [5] = assay: BJ-TERT fibroblast viability loss – cell-based, RAS-independent, luminescence, dose response (AID 1933); format: functional; details: Homo sapiens
Caspase-3 = biological target: T2, Caspase-3 (Homo sapiens, UniProt P42574); format: functional;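 further: Dose-response selectivity test against caspase-3 for candidate inhibitors of sentrin-specific proteases (SENPs)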
T2 sequence (P42574 whole entry): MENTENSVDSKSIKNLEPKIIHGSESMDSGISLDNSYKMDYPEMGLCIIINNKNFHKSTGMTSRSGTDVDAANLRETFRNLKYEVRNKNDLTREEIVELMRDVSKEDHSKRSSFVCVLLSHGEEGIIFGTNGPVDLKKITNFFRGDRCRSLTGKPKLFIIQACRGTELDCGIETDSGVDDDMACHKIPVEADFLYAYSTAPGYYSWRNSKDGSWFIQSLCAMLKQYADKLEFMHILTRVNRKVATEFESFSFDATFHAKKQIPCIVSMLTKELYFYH

[6] = biological target: T3, Sentrin-specific protease 6 (Homo sapiens, UniProt Q9GZR1); format: functional;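 further: Luminescence-based dose-response confirmatory assay of SENP6 inhibition, following up an ultra-high-throughput screen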
T3 sequence (Q9GZR1 whole entry): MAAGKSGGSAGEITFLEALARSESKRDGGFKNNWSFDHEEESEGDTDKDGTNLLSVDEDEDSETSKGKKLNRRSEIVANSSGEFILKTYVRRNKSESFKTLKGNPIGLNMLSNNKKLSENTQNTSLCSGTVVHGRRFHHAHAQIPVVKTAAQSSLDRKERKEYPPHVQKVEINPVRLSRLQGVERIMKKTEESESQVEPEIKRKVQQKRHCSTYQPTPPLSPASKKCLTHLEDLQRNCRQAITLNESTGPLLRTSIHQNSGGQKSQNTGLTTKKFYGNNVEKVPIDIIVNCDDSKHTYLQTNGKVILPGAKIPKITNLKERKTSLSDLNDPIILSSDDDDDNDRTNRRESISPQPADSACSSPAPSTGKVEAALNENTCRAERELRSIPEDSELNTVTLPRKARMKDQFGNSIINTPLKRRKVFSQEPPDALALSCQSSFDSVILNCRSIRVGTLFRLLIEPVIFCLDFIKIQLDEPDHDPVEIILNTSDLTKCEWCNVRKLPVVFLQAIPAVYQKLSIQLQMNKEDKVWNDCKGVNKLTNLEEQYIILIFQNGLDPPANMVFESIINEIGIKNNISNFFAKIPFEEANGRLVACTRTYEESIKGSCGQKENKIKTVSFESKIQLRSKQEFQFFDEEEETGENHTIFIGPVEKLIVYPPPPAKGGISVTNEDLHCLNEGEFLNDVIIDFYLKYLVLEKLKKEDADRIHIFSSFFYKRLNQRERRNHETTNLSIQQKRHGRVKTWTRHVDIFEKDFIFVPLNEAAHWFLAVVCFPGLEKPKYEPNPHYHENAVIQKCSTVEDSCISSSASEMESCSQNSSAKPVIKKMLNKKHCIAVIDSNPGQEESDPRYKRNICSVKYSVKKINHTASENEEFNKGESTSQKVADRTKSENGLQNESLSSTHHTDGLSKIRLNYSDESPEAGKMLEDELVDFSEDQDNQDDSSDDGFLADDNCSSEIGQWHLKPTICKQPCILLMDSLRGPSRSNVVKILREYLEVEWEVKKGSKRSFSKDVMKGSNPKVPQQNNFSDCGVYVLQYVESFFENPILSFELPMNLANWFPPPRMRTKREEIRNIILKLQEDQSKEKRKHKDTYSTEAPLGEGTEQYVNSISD

[7] = biological target: T4, Sentrin-specific protease 7 (Homo sapiens, UniProt Q9BQF6); format: functional;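 further: Luminescence-based dose-response confirmation of ultra-high-throughput screening hits, measuring inhibition of SENP7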
T4 sequence (Q9BQF6 whole entry): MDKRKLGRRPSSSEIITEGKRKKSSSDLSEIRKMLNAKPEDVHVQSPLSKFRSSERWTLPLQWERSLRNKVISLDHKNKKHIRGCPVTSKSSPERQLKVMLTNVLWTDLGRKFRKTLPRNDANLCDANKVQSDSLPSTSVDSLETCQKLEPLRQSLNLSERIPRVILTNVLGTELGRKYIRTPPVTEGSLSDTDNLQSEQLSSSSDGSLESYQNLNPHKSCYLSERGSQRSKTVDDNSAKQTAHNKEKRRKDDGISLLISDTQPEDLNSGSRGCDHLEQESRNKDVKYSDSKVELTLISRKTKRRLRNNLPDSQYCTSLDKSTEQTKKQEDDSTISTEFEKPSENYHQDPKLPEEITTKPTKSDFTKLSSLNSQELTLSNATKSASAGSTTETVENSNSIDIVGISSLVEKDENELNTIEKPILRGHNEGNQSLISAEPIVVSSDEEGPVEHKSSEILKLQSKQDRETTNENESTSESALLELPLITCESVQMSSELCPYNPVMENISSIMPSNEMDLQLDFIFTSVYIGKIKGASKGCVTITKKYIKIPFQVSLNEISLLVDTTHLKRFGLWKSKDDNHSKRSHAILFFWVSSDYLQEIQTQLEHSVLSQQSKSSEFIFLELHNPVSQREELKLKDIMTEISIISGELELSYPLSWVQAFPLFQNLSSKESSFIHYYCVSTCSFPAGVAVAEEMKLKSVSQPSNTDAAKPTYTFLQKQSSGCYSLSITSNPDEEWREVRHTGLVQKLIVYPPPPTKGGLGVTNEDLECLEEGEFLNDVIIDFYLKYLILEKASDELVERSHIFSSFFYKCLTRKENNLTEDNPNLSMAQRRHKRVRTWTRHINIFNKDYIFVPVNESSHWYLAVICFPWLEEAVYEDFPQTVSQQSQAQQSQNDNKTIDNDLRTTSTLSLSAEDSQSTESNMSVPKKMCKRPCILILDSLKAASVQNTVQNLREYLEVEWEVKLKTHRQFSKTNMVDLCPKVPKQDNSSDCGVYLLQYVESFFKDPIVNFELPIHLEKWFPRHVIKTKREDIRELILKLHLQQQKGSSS

[8] = biological target: T5, Sentrin-specific protease 8 (Homo sapiens, UniProt Q96LD8); format: functional;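 further: luminescence read-out of SENP8 inhibition, dose-response confirmation following an ultra-high-throughput screen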
T5 sequence (Q96LD8 whole entry): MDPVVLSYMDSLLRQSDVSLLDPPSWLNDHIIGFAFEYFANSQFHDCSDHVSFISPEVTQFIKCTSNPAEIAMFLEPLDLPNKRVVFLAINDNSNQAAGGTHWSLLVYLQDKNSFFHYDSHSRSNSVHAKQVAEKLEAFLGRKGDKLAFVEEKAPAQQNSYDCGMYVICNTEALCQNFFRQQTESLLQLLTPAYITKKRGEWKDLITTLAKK

Fatty acid synthase [9] = biological target: T6, Fatty acid synthase (Homo sapiens, UniProt P49327); assay: inhibition of human FAS-TE enzyme activity – biochemical, endpoint fluorescence intensity, uHTS hits, dose response (AID 624327); format: functional;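 further: fluorescence from hydrolysis of an O-methyl fluorescein acyl ester substrate by the enzyme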
Fatty acid synthase [10] = biological target: T6, Fatty acid synthase; assay: inhibition of human FAS-TE enzyme activity – biochemical, kinetic fluorescence intensity, dose response (AID 624326); format: functional;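 further: rate of fluorescence rise from hydrolysis of a fluorogenic O-methyl fluorescein ester substrate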
[11] = biological target: Eukaryotic translation initiation factor 4E (Mus musculus, UniProt P63073); assay: blockers of eIF4G binding by eIF4E – biochemical, TR-FRET, dose response (AID 855); format: functional;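 further: potency for disrupting eIF4E binding to eIF4GI seen as loss of FRET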
[12] = biological target: T7, Glutathione-S-transferase (Schistosoma japonicum, UniProt Q26513); assay: GST-antibody interaction or FRET quenching – biochemical, TR-FRET, artefact control for Vif-APOBEC3G degradation inhibitor project, dose response (AID 1117362); format: functional
T7 sequence (Q26513 whole entry): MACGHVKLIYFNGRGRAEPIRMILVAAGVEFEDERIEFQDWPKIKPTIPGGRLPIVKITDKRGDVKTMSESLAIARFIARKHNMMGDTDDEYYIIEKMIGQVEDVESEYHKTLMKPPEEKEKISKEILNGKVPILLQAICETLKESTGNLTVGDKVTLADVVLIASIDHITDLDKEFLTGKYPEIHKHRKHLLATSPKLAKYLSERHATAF

T6 sequence (P49327 whole entry): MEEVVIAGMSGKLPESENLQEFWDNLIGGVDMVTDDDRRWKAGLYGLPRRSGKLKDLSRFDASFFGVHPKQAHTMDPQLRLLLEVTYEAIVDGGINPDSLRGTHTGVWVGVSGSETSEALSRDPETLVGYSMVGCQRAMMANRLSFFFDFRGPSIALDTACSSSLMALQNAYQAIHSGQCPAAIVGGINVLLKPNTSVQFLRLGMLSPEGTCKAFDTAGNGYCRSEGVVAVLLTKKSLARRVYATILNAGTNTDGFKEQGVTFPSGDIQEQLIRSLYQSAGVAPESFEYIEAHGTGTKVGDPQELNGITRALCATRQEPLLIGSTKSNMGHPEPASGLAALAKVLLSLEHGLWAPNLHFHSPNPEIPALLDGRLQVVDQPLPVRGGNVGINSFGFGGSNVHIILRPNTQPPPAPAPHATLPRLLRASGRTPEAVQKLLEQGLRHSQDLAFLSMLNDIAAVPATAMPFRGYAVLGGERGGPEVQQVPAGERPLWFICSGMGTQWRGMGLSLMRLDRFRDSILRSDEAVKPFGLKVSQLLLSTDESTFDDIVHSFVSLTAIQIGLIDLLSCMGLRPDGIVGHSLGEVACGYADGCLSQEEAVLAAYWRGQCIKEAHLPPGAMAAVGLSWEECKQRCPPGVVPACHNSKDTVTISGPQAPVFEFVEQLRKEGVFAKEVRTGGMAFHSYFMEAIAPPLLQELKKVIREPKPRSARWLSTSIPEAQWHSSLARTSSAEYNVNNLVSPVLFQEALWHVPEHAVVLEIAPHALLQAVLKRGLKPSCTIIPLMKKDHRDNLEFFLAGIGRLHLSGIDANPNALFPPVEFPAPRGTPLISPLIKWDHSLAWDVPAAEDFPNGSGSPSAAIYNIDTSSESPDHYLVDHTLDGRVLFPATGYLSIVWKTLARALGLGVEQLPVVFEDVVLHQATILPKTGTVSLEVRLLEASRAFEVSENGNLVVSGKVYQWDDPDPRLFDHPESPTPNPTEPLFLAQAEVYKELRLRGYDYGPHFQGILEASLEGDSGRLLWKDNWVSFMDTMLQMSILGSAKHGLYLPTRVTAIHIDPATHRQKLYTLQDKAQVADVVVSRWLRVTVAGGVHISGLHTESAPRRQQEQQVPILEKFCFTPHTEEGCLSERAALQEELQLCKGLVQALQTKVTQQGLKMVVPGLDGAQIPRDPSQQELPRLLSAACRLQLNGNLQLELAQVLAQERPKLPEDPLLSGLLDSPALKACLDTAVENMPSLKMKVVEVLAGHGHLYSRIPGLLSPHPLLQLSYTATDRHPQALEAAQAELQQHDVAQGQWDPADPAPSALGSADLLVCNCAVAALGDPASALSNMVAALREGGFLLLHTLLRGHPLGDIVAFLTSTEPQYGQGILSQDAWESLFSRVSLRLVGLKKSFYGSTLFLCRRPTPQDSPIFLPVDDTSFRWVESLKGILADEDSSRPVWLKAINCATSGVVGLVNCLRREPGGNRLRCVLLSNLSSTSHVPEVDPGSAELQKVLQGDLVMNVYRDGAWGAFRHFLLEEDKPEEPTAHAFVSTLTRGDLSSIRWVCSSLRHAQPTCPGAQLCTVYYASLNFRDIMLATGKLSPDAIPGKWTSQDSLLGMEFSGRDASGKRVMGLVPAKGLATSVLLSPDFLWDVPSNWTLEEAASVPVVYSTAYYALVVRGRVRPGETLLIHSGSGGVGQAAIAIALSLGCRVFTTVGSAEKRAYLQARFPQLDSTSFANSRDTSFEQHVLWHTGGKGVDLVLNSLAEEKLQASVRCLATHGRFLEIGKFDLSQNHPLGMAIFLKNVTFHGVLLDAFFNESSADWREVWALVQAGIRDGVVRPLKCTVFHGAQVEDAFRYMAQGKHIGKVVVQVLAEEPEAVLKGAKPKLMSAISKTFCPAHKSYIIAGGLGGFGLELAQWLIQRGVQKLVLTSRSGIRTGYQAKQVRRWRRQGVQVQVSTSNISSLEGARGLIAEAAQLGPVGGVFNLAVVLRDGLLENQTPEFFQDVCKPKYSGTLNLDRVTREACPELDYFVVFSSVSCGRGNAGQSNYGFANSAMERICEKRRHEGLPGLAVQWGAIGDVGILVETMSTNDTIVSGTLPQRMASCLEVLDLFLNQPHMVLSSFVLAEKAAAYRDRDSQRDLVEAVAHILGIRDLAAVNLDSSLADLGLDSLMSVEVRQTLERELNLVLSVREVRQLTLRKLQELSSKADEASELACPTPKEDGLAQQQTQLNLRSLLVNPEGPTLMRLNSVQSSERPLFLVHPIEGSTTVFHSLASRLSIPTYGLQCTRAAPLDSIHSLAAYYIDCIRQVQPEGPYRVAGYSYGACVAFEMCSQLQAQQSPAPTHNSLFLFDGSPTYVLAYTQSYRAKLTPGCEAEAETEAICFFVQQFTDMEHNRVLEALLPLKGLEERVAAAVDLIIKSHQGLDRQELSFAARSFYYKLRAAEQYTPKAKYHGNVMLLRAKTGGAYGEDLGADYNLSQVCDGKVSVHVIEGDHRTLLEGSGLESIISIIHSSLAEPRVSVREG
Sequence of Eukaryotic translation initiation factor 4E (P63073 whole entry): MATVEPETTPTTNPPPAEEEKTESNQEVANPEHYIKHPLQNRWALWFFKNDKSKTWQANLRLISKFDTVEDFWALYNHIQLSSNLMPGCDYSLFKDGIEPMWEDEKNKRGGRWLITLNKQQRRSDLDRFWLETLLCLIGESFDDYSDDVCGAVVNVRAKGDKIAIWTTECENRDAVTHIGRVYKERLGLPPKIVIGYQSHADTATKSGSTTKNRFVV

Structure (SMILES): Cc1cc2oc(C(=O)NC3CCS(=O)(=O)C3)c(C)c2cc1C (stereo unspecified)
Ki (fMet-Leu-Phe receptor): > 66.7 µM (inactive)

Structure (SMILES): Brc1nc(-c2ccccc2)nc(-c2ccccc2)c1Br
EC50 [1]: 10.2 µM (active)
EC50 (BJ [2]): 7.93 µM (inconclusive)
EC50 (BJ [3]): 14 µM (active)
EC50 (BJ [4]): 4.95 µM (active)
EC50 (BJ [5]): 8.57 µM (inconclusive)

Structure (SMILES): O=[N+]([O-])c1ccc(S(=O)(=O)NN=Cc2ccc3c(c2)OCO3)cc1
IC50 (Fatty acid synthase [9]): 5.4 µM (active)
IC50 (Fatty acid synthase [10]): 5.8 µM (active)

Structure (SMILES): O=C(COc1ccccc1Cl)c1ccc[nH]1
IC50 [11]: 50 µM (inactive)
IC50 [12]: > 100 µM (active)

Structure (SMILES): CCCCn1c(NC(C)=O)c(C#N)c2nc3ccccc3nc21
Ki (fMet-Leu-Phe receptor): 45.7 µM (inactive)

Second part, led by results:

Ki (fMet-Leu-Phe receptor): > 66.7 µM (inactive)
Structure (SMILES): Fc1ccc(-c2nnc3ccc(N4CCCC4)nn23)cc1

IC50 (Caspase-3): > 100 µM (inactive)
IC50 [6]: > 100 µM (inactive)
IC50 [7]: > 100 µM (inactive)
Structure (SMILES): c1ccc(Nc2nnc(-c3cccc4ccccc34)o2)cc1
IC50 [8]: > 100 µM (inactive)

IC50 (Caspase-3): 16.1 µM (active)
IC50 [6]: 12 µM (active)
IC50 [7]: 4.23 µM (active)
Structure (SMILES): COc1ccc(-c2nnc(SCc3ccccc3F)o2)cc1
IC50 [8]: 12.2 µM (active)

Ki (fMet-Leu-Phe receptor): 63.3 µM (inactive)
Structure (SMILES): COc1ccccc1-n1c(CNC(=O)c2ccco2)nnc1SCC(=O)Nc1ccc(F)cc1
